From PubChem BioAssay AID192 (DTP/NCI, 2004)
“And” between values parts separate entries of the source, which are not always exact repeats. Equal entries are not always repeated. Toxic doses and inconclusive results are not listed.

System: BDF1 mice, B16 melanoma ip, median survival T/C
Assay: NCI In Vivo Anticancer Drug Screen. Data for tumor model B16 Melanoma (intraperitoneal) in B6D2F1 (BDF1) mice
Settings: endpoint: median survival time, higher = longer survival
In short: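 Each result divides a survival or tumor-size measurement in the compound-treated group by the same measurement in the vehicle group.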

[1] = dose: 12.5 mg/kg/injection, schedule: Q01DX009 (ip), vehicle: saline with Tween-80
[2] = dose: 25.0 mg/kg/injection, schedule: Q01DX009 (ip), vehicle: saline with Tween-80
[3] = dose: 25.0 mg/kg/injection, schedule: Q04DX003 (ip), vehicle: saline with Tween-80
[4] = dose: 50.0 mg/kg/injection, schedule: Q01DX009 (ip), vehicle: saline with Tween-80
[5] = dose: 50.0 mg/kg/injection, schedule: Q04DX003 (ip), vehicle: saline with Tween-80
[6] = dose: 100.0 mg/kg/injection, schedule: Q01DX009 (ip), vehicle: saline with Tween-80
[7] = dose: 12.5 mg/kg/injection, schedule: Q01DX009 (ip), vehicle: saline
[8] = dose: 25.0 mg/kg/injection, schedule: Q01DX009 (ip), vehicle: saline
[9] = dose: 50.0 mg/kg/injection, schedule: Q01DX009 (ip), vehicle: saline
[10] = dose: 100.0 mg/kg/injection, schedule: Q01DX009 (ip), vehicle: saline
[11] = dose: 200.0 mg/kg/injection, schedule: Q01DX009 (ip), vehicle: saline
[12] = dose: 200.0 mg/kg/injection, schedule: Q01DX009 (ip), vehicle: Klucel (hydroxypropylcellulose) (HPC)
[13] = dose: 6.25 mg/kg/injection, schedule: Q01DX009 (ip), vehicle: saline with Tween-80
[14] = dose: 100.0 mg/kg/injection, schedule: Q01DX009 (ip), vehicle: Klucel (hydroxypropylcellulose) (HPC)
[15] = dose: 400.0 mg/kg/injection, schedule: Q01DX009 (ip), vehicle: Klucel (hydroxypropylcellulose) (HPC)
[16] = dose: 25.0 mg/kg/injection, schedule: Q04DX003 (ip), vehicle: Klucel (hydroxypropylcellulose) (HPC)
[17] = dose: 100.0 mg/kg/injection, schedule: Q04DX003 (ip), vehicle: Klucel (hydroxypropylcellulose) (HPC)
[18] = dose: 100.0 mg/kg/injection, schedule: Q04DX003 (ip), vehicle: saline with Tween-80

## C=CC1CC[N-]CC1.C=CC1CC[N-]CC1.C=CC1CC[N-]CC1.[Cl][Cr]([Cl])[Cl]
dose: 8.0 mg/kg/injection, schedule: Q04DX003 (ip), vehicle: saline with Tween-80
  T/C: 97 % of control
dose: 12.0 mg/kg/injection, schedule: Q04DX003 (ip), vehicle: saline with Tween-80
  T/C: 102 % of control
[1]
  T/C: 95 % of control
dose: 18.0 mg/kg/injection, schedule: Q04DX003 (ip), vehicle: saline with Tween-80
  T/C: 105 % of control
[2]
  T/C: 95 % of control
[3]
  T/C: 121 % of control
[4]
  T/C: 102 % of control
[5]
  T/C: 113 % of control

## CC(C)CCC1(CCBr)C(=O)NC(=Nc2ccccc2)NC1=O (stereo unspecified)
[2]
  T/C: 86 % of control
[4]
  T/C: 106 % of control
[6]
  T/C: 96 % of control
dose: 200.0 mg/kg/injection, schedule: Q01DX009 (ip), vehicle: saline with Tween-80
  T/C: 96 % of control

## Nc1cccc(=O)[nH]1
[7]
  T/C: 90 % of control
[8]
  T/C: 98 % of control
[9]
  T/C: 98 % of control
[10]
  T/C: 98 % of control
[11]
  T/C: 90 % of control
dose: 400.0 mg/kg/injection, schedule: Q01DX009 (ip), vehicle: saline
  T/C: 92 % of control

## CC(Cc1ccccc1)NCCc1c2ccccc2nc2ccccc12 (stereo unspecified)
dose: 12.5 mg/kg/injection, schedule: Q01DX009 (ip), vehicle: Klucel (hydroxypropylcellulose) (HPC)
  T/C: 92 % of control
dose: 25.0 mg/kg/injection, schedule: Q01DX009 (ip), vehicle: Klucel (hydroxypropylcellulose) (HPC)
  T/C: 86 % of control and 100 % of control
dose: 50.0 mg/kg/injection, schedule: Q01DX009 (ip), vehicle: Klucel (hydroxypropylcellulose) (HPC)
  T/C: 90 % of control and 92 % of control
[12]
  T/C: 92 % of control

## CCn1cnc2c(=S)nc[nH]c21
[13]
  T/C: 97 % of control
[1]
  T/C: 86 % of control
[2]
  T/C: 95 % of control
[4]
  T/C: 89 % of control and 104 % of control

## NCC(c1ccccc1)c1ccccc1
[7]
  T/C: 100 % of control
[8]
  T/C: 91 % of control
[9]
  T/C: 91 % of control

## c1ccc2c(CC[n+]3cccc(C4OCCO4)c3)c[nH]c2c1
[7]
  T/C: 94 % of control
[8]
  T/C: 100 % of control
[9]
  T/C: 100 % of control

## COc1cccc(CNc2cccc([N+](=O)[O-])c2)c1OC
[14]
  T/C: 100 % of control
[12]
  T/C: 110 % of control
[15]
  T/C: 105 % of control

## CC[N+](CC)(CC)CC.N#C/C([SH2+])=C(/[SH2+])C#N.N#C/C([SH2+])=C(/[SH2+])C#N.[Cu+2]
dose: 12.5 mg/kg/injection, schedule: Q04DX003 (ip), vehicle: Klucel (hydroxypropylcellulose) (HPC)
  T/C: 92 % of control
[16]
  T/C: 89 % of control

## COc1ccc2c(c1)CN(S(=O)(=O)c1ccc(C)cc1)C=CC2=O
[17]
  T/C: 108 % of control
dose: 200.0 mg/kg/injection, schedule: Q04DX003 (ip), vehicle: Klucel (hydroxypropylcellulose) (HPC)
  T/C: 103 % of control
dose: 400.0 mg/kg/injection, schedule: Q04DX003 (ip), vehicle: Klucel (hydroxypropylcellulose) (HPC)
  T/C: 97 % of control

## C=C/C(C)=C/[C@H](C)C(=O)C[C@H](O)CC1CC(=O)NC(=O)C1
[13]
  T/C: 121 % of control
[1]
  T/C: 109 % of control
[2]
  T/C: 121 % of control
[6]
  T/C: 121 % of control

## COC(=O)[C@@]12OC[C@]34[C@H]([C@@H](O)[C@@H]1O)[C@@]1(C)C=C(OC5OC(CO)C(O)C(O)C5O)C(=O)C(C)[C@@H]1C[C@H]3OC(=O)[C@H](OC(=O)C=C(C)C)[C@@H]24 (stereo partly specified)
dose: 0.25 mg/kg/injection, schedule: Q01DX009 (ip), vehicle: saline + alcohol
  T/C: 108 % of control
dose: 0.5 mg/kg/injection, schedule: Q01DX009 (ip), vehicle: saline + alcohol
  T/C: 108 % of control
dose: 1.0 mg/kg/injection, schedule: Q01DX009 (ip), vehicle: saline + alcohol
  T/C: 108 % of control
dose: 2.0 mg/kg/injection, schedule: Q01DX009 (ip), vehicle: saline + alcohol
  T/C: 105 % of control
dose: 4.0 mg/kg/injection, schedule: Q01DX009 (ip), vehicle: saline + alcohol
  T/C: 113 % of control
dose: 8.0 mg/kg/injection, schedule: Q01DX009 (ip), vehicle: saline + alcohol
  T/C: 103 % of control

## CC(=O)Nc1ccc(S(=O)(=O)N/N=C\c2ccc(Cl)c(Cl)c2)cc1
[13]
  T/C: 111 % of control
[1]
  T/C: 105 % of control
[2]
  T/C: 117 % of control

## CCC1(O)CC2c3ccccc3CCN2CC1CC(C)C (stereo unspecified)
dose: 0.19 mg/kg/injection, schedule: Q01DX009 (ip), vehicle: saline
  T/C: 104 % of control
dose: 0.39 mg/kg/injection, schedule: Q01DX009 (ip), vehicle: saline
  T/C: 111 % of control
dose: 0.78 mg/kg/injection, schedule: Q01DX009 (ip), vehicle: saline
  T/C: 109 % of control
dose: 1.56 mg/kg/injection, schedule: Q01DX009 (ip), vehicle: saline
  T/C: 112 % of control
dose: 3.12 mg/kg/injection, schedule: Q01DX009 (ip), vehicle: saline
  T/C: 112 % of control

## C=C(C)C12OC3(CCCCCCCCC)OC1C1C4OC4(COC(=O)CCCCCCCCCCCCCCC)C(O)C4(O)C(=O)C(C)=CC4C1(O3)C(C)C2OC(=O)c1ccccc1 (stereo unspecified)
dose: 0.5 micrograms/kg/injection, schedule: Q01DX009 (ip), vehicle: saline
  T/C: 102 % of control
dose: 1.0 micrograms/kg/injection, schedule: Q01DX009 (ip), vehicle: saline
  T/C: 105 % of control
dose: 1.9 micrograms/kg/injection, schedule: Q01DX009 (ip), vehicle: saline
  T/C: 91 % of control
dose: 3.8 micrograms/kg/injection, schedule: Q01DX009 (ip), vehicle: saline
  T/C: 110 % of control
dose: 7.5 micrograms/kg/injection, schedule: Q01DX009 (ip), vehicle: saline
  T/C: 91 % of control
dose: 15.0 micrograms/kg/injection, schedule: Q01DX009 (ip), vehicle: saline
  T/C: 100 % of control
dose: 30.0 micrograms/kg/injection, schedule: Q01DX009 (ip), vehicle: saline
  T/C: 100 % of control

## CCOC(=O)C(O)C(C#N)c1ccccc1 (stereo unspecified)
dose: 100.0 mg/kg/injection, schedule: Q01DX009 (ip), vehicle: other
  T/C: 98 % of control
dose: 200.0 mg/kg/injection, schedule: Q01DX009 (ip), vehicle: other
  T/C: 99 % of control
dose: 400.0 mg/kg/injection, schedule: Q01DX009 (ip), vehicle: other
  T/C: 107 % of control

## CC(=O)OCC1OC(OC(C)=O)C(NC(=O)N(CCCl)N=O)C(OC(C)=O)C1OC(C)=O (stereo unspecified)
dose: 0.75 mg/kg/injection, schedule: Q01DX009 (ip), vehicle: Klucel (hydroxypropylcellulose) (HPC)
  T/C: 162 % of control
dose: 1.0 mg/kg/injection, schedule: Q01DX009 (ip), vehicle: Klucel (hydroxypropylcellulose) (HPC)
  T/C: 152 % of control
dose: 1.5 mg/kg/injection, schedule: Q01DX009 (ip), vehicle: Klucel (hydroxypropylcellulose) (HPC)
  T/C: 180 % of control
dose: 2.0 mg/kg/injection, schedule: Q01DX009 (ip), vehicle: Klucel (hydroxypropylcellulose) (HPC)
  T/C: 188 % of control and 287 % of control
dose: 3.0 mg/kg/injection, schedule: Q01DX009 (ip), vehicle: Klucel (hydroxypropylcellulose) (HPC)
  T/C: 208 % of control
dose: 4.0 mg/kg/injection, schedule: Q01DX009 (ip), vehicle: Klucel (hydroxypropylcellulose) (HPC)
  T/C: 232 % of control

## C1=C(c2ccccc2)CCC1
[9]
  T/C: 97 % of control
[10]
  T/C: 88 % of control

## COC(=O)c1ccccc1NC(=O)Nc1ccccc1
[14]
  T/C: 110 % of control
[12]
  T/C: 105 % of control
[15]
  T/C: 99 % of control

## Cc1c(C(=O)O)cc2n(c1=O)Cc1cc3ccccc3nc1-2
[16]
  T/C: 102 % of control
dose: 50.0 mg/kg/injection, schedule: Q04DX003 (ip), vehicle: Klucel (hydroxypropylcellulose) (HPC)
  T/C: 94 % of control
[17]
  T/C: 89 % of control
[18]
  T/C: 100 % of control

## O=C(O)CCC(=O)Nc1ccccc1C(F)(F)F
dose: 12.5 mg/kg/injection, schedule: Q04DX003 (ip), vehicle: saline with Tween-80
  T/C: 108 % of control
[3]
  T/C: 111 % of control
[5]
  T/C: 113 % of control
[18]
  T/C: 108 % of control
dose: 200.0 mg/kg/injection, schedule: Q04DX003 (ip), vehicle: saline with Tween-80
  T/C: 105 % of control

## COC(=O)c1ccc[n+](CC(=O)c2ccccc2)c1
[9]
  T/C: 95 % of control
[10]
  T/C: 93 % of control
[11]
  T/C: 99 % of control
